Experimental data from US5126057A, “Disinfecting with N,N'-dihaloimidazolidin-4-ones” (Auburn Research Foundation, priority 1991, dated 1992).
Values belong to the molecule of their own block, whether it stands above or below them.

Key:
Type in all cases: cell-based
[1] = system: Pseudomonas aeruginosa (ATCC 27853); test: Bactericidal efficacy, percent inactivation of P. aeruginosa; conditions: pH 7.0, 22° C., DFW
Description: The halogenated imidazolidin-4-one derivatives prepared as in examples 3, 5, and 6 (Compounds 1, 5, and 3, respectively) were tested as bactericides against the microorganisms Staphylococcus aureus (ATCC25923) and Pseudomonas aeruginosa (ATCC 27853) in demand-free water (DFW) as a function of pH and temperature and in a synthetic-demand water (SDW) at pH 9.5 and 4° C. The demand-free and synthetic-demand waters were prepared as described in examples 7 and 12, respectively.
For the bactericidal efficacy tests 50 milliliters of buffered DFW or SDW were placed in a 125 milliliter flask which was then inoculated with the organism to be tested such that the final density of the organism was about 1×10^6 cfu/ml (colony forming units per milliliter). The inoculated solution was allowed to equilibrate at the test temperature by immersion in a thermostated water bath for 15 minutes with constant stirring. Then an appropriate amount of an aqueous solution containing the test halogenated imidazolidin-4-one compound maintained at the same test temperature was added to the inoculated solution to bring the total concentration of potential positive halogen (Cl^+ or Cl^+ /Br^+) in the mixture to a predetermined level (10 parts per million and 5 parts per million Cl^+ from compounds 1 and 3; the molar equivalent in Cl^+ /Br^+ from Compound 5). 1 milliliter aliquots were removed from the test mixture at various predetermined times, and the active halogen was quenched by 1 milliliter portions of sterile 0.02 Normal sodium thiosulfate. Serial dilutions were made into sterile saline, and three 25 microliter aliquots of each of the resulting dilutions were applied to the dried surface of a Petri dish containing tryptic soy and nutrient agars for plating S. aureus and P. aeruginosa, respectively. After 48 hours at 37° C. the three replicates for each dilution were counted and averaged. This average was used to compute the cfu/ml for that particular aliquot. Inactivation of the organism was considered to be at least 99.9999 percent when no colonies were detected in the thiosulfate quenched aliquots.

[2] = Prevention of the growth of algae in water by Compound 1; conditions: algal aquarium, pH 6.8, start 6.14 mg per liter, read-out: Percent Total Potential Positive Chlorine Remaining
Description: (§1) Two 10 gallon aquariums were each filled with 35 liters of Bristol's solution at pH 6.8 as described in example 16. To aquarium A was added 6.14 milligrams per liter total potential positive chlorine from 0.638 grams of 1,3-dichloro-2,2,5,5-tetramethylimidazolidin-4-one (Compound 1) as prepared in example 1. Aquarium B was used as a control with no halogenated compound added. Then 5 milliliters of an inoculum containing the algae Oscillatoria lutea, Anabaena cylindrica, and Chlorella pyrenoidosa with an absorbance of 0.14 at 750 nanometers was added to each aquarium. Constant aeration and illumination as described in example 16 were provided throughout the experiment. The laboratory temperature varied between 21° and 24° C. during the course of the experiment. Both aquariums were sampled periodically such that the absorption at 750 nanometers could be measured with a Milton Roy Spectronic 301 spectrophotometer. Aquarium A was also sampled for total potential positive chlorine using standard iodometric titration.

[3] = system: Oscillatoria lutea, Anabaena cylindrica, and Chlorella pyrenoidosa; test: as above
Description: as §1

remaining at 24 h ([2]; day 1): 70.1%
remaining at 96 h ([2]; day 4): 53.4%
remaining at 120 h ([2]; day 5): 52.1%
remaining at 144 h ([2]; day 6): 51%
remaining at 168 h ([2]; day 7): 49.5%
remaining at 192 h ([2]; day 8): 48.9%
remaining at 264 h ([2]; day 11): 45.8%
remaining at 288 h ([2]; day 12): 45.6%
remaining at 312 h ([2]; day 13): 44.8%
remaining at 336 h ([2]; day 14): 43.3%
remaining at 360 h ([2]; day 15): 44.8%
remaining at 432 h ([2]; day 18): 41.9%
Percent Total Potential Positive Chlorine Remaining ([3]; start 6.14 mg per liter, day 0): 100.0%
Structure (SMILES): CC1(C)C(=O)N(Cl)C(C)(C)N1Cl [Compound 1, 1,3-dichloro-2,2,5,5-tetramethylimidazolidin-4-one]
killing at 5 ppm ([1]; ATCC27853, 5 min, 5 minutes): > 100%
killing at 5 ppm ([1]; ATCC27853, 10 min, 10 minutes): > 100%
green turbid tint (in words) ([3]; 6.14 mg per liter Cl+, 18 day experiment): did not develop such a color at any time during the 18 day experiment
A750 (Absorbance at 750 Nanometers) ([3]; 6.14 mg per liter Cl+, day 7): 0.002
A750 (Absorbance at 750 Nanometers) ([3]; 6.14 mg per liter Cl+, day 11): 0.0
A750 (Absorbance at 750 Nanometers) ([3]; 6.14 mg per liter Cl+, day 12): 0.001
A750 (Absorbance at 750 Nanometers) ([3]; 6.14 mg per liter Cl+, day 13): 0.0
A750 (Absorbance at 750 Nanometers) ([3]; 6.14 mg per liter Cl+, day 14): 0.001
A750 (Absorbance at 750 Nanometers) ([3]; 6.14 mg per liter Cl+, day 15): 0.0
A750 (Absorbance at 750 Nanometers) ([3]; 6.14 mg per liter Cl+, day 18): 0.0
prevention of the growth of algae (in words) ([3]; as long as a measurable amount of the compound is present): effective at preventing the growth of algae in water

Structure (SMILES): CC1(C)C(=O)N(Cl)C(C)(C)N1Br [Compound 5, 1-bromo-3-chloro-2,2,5,5-tetramethylimidazolidin-4-one]
killing at 5 ppm ([1]; ATCC27853, 5 min, 5 minutes): > 100%
killing at 5 ppm ([1]; ATCC27853, 10 min, 10 minutes): > 100%
